Assay results reported in patent publication US20080288176A1 (priority 2005, published 2008).

Tests used:
[1] = Stability in gastric environment (gastric decay rate); assay type: in vitro ADME
Source text: (§1) The physiologically based pharmacokinetic/pharmacodynamic model of the present invention contains a series of compartments that describe the time course of a nonsteroidal anti-inflammatory prodrug, its active metabolites and nitric oxide release in intestine, liver, kidneys, blood/plasma and heart after prodrug administration. The time course of the prodrug, its active metabolites and nitric oxide release can be simulated using a series of in vitro and in silico inputs. The stability of each component in the gastrointestinal lumen is estimated using data collected from artificial gastric and intestinal juice. Intestinal metabolism is estimated using intestinal microsomes and absorption rate is estimated using permeability data collected from a cell monolayer such as Caco-2. Hepatic elimination is estimated using liver microsomes and stability in plasma is calculated using degradation of each component in the media. Plasma protein binding can either be measured using a standardized in vitro method or it can be estimated using an in silico method. The distribution of each component in various parts of the body is estimated using an in silico method. The rate of nitric oxide release is estimated using an in vitro endothelial cell model. The time course of prodrug, its active metabolites and nitric oxide can be simulated in human and animal using this physiologically based pharmacokinetic/pharmacodynamic model provided that the corresponding in vitro and in silico data are used as inputs.
(§2) Representative in vitro tests or in silico estimates include: (a) pKa estimation or measurement; (b) Log P measurement or in silico estimation; (c) Solubility in various physiological fluids; (d) Permeability. Caco-2 and/or NOVOKIN's proprietary animal and human cell lines can be used to obtain this parameter; (e) Metabolic rate in the intestine and liver. Human or animal intestinal microsomes, S9 fraction, and cytosol can be used for this purpose. Human or animal hepatocytes, liver microsomes, S9 fraction, and cytosol can also be used; (f) Hydrolysis in human or animal plasma; (g) Serum or plasma protein binding. It can be measured in vitro or estimated in silico; (h) The rate of NO release; (i) Existing pharmacokinetic and pharmacodynamic data of NSAID or a biocompatible agent; (j) Existing NO release rate of known diazeniumdiolate if applicable; (k) Stability in gastric and intestinal environment; and (l) In silico volume of distribution estimation.

[2] = Hydrolysis in rat intestinal microsomes; assay type: in vitro ADME; settings: for intestinal microsomal activity: model input
Source text: as §1, §2
(§3) Whenever in vitro estimate is attainable, the in vitro results will be used, for example, plasma protein binding. Methods reported by Bowalgaha & Miners (2001), Martignoni et al. (2006), Tong et al. (2001) and Thulesen et al. (1999) were used for in vitro and in vivo scale-up for clearance in the intestine, absorption rate constant and hepatic clearance. The simulation begins with no material in all compartments except for the initial bolus in one compartment (typically the stomach compartment). The simulation then estimates the changing distribution of the material with time.

[3] = Hydrolysis in various enzymatic preparations (rat and human intestinal and liver microsomes); settings: for Stability of the NO-AA formed (in words): intestinal and liver microsomes of human and rats; for Initial loss of the prodrug candidate (in words): various enzymatic preparations
[4] = Hydrolysis in rat plasma; assay type: in vitro ADME; settings: for Hydrolysis of the NO-AA in rat plasma (in words) / NO-AA half-life in plasma: NO-AA formed from the prodrug
Source text: as §1, §2

[5] = Hydrolysis in rat liver microsomes; assay type: in vitro ADME; settings: for liver microsomal activity: model input
Source text: as §1, §2, §3

[6] = Stability in intestinal lumen (decay rate); assay type: in vitro ADME
Source text: as §1, §2

[7] = Hydrolysis in human intestinal microsomes; assay type: in vitro ADME; settings: for intestinal microsomal activity: model input
Source text: as §1
The selection of in vitro tests is designed to provide parameters for the above mentioned model. The use of an inappropriate test would result in wrong predictions. For example, Knaus et al. (2005) used guinea pig serum and porcine esterases to hydrolyze their O^2-substituted diazeniumdiolate derivatives of ASPIRIN, as disclosed in U.S. Ser. No. 60/681,842. These tests provided very little information in terms of in vivo human NO-NSAID metabolism rate and the extent to which metabolic conversion to NO donor and NSAID occurred. […] The half-life values were less than one minute. Based on these observations, it has become apparent that prior to entering the systemic circulation, it is likely that the NO-NSAID would have been hydrolyzed in the enterocytes and little or no NO-NSAID would have been detected in the blood stream. Furthermore, the release of NO will commence immediately once the NO donor is detached from the NSAID.
as §2, §3

[8] = Hydrolysis in human liver microsomes; assay type: in vitro ADME; settings: for liver microsomal activity: model input
Source text: as §1, with “The” for “The physiologically based pharmacokinetic/pharmacodynamic model of the present invention contains a series of compartments that describe the time course of a nonsteroidal anti-inflammatory prodrug, its active metabolites and nitric oxide release in intestine, liver, kidneys, blood/plasma and heart after prodrug administration. The”
The selection of in vitro tests is designed to provide parameters for the above mentioned model. The use of an inappropriate test would result in wrong predictions.
as §2
The simulation begins with no material in all compartments except for the initial bolus in one compartment (typically the stomach compartment). The simulation then estimates the changing distribution of the material with time.

[9] = Enzymatic hydrolysis in liver microsomal preparations (LC-MS); assay type: in vitro ADME; settings: liver microsomal preparations
Procedure: (§4) The sensitivity of the prodrug 3 towards enzymatic hydrolysis was evaluated by LC-MS. Liver and intestinal microsomal preparations were used. […] However, these rates were slower than the enzymatic hydrolysis rates determined for the conversion of 1→4 and 2→5 (complete hydrolysis observed in 10 and 30 minutes respectively in liver microsomal preparations).

[10] = Chemical stability (loss of diazeniumdiolate) in phosphate buffer; assay type: physicochemical
Procedure: They varied only in the nitrogen substituent of the amino acid, i.e. free amine (1), acetyl (2) and pivaloyl (3) groups. Their chemical stability was evaluated in phosphate buffer at different pH's over a 30 minute period (Table 11).

[11] = Enzymatic hydrolysis in intestinal microsomal preparations (LC-MS); assay type: in vitro ADME; settings: after 2 hours
Procedure: as §4

## COc1ccc2cc(C(C)C(=O)OCOC(=O)CCC(NC(=O)C(C)(C)C)C(=O)OCON=[N+]([O-])N(C)C)ccc2c1 (stereo not drawn) [CMD 113]
[1]; Human
  gastric decay rate constant: 0 /mint
[1]; Rat
  gastric decay rate constant: 0 /mint
[2]
  intestinal molar percent conversion to Naproxen: 62%
  intestinal microsomal activity: 2 mL/min/organ
[3]
  Stability of the NO-AA formed (in words): relatively stable
  Initial loss of the prodrug candidate (in words): rapid initial loss
[4]
  Hydrolysis of the NO-AA in rat plasma (in words): relatively fast rate
[4]; Rat
  plasma decay rate constant: 1.2 min⁻¹
  NO-AA half-life in plasma: 9.2 min
[5]
  liver molar percent conversion to Naproxen: 90%
  liver microsomal activity: 6545 mL/min/organ
[6]; Human
  intestinal lumen decay rate constant: 0.2 min⁻¹
[6]; Rat
  intestinal lumen decay rate constant: 0.2 min⁻¹
[7]
  intestinal molar percent conversion to Naproxen: 75%
  intestinal microsomal activity: 4813 mL/min/organ
[8]
  liver molar percent conversion to Naproxen: 72%
  liver microsomal activity: 434763 mL/min/organ

## COc1ccc2cc(C(C)C(=O)OCOC(=O)C(CCC(=O)OCON=[N+]([O-])N(C)C)NC(=O)C(C)(C)C)ccc2c1 (stereo not drawn) [CMD 114]
[1]; Human
  gastric decay rate constant: 0 /mint
[1]; Rat
  gastric decay rate constant: 0 /mint
[2]
  intestinal molar percent conversion to Naproxen: 42%
  intestinal microsomal activity: 9 mL/min/organ
[3]
  Stability of the NO-AA formed (in words): relatively stable
  Initial loss of the prodrug candidate (in words): rapid initial loss
[4]
  Hydrolysis of the NO-AA in rat plasma (in words): relatively fast rate
[4]; Rat
  NO-AA half-life in plasma: 3.8 min
[5]
  liver molar percent conversion to Naproxen: 60%
  liver microsomal activity: 7667 mL/min/organ
[6]; Human
  intestinal lumen decay rate constant: 0.67 min⁻¹
[6]; Rat
  intestinal lumen decay rate constant: 0.67 min⁻¹
[7]
  intestinal molar percent conversion to Naproxen: 78%
  intestinal microsomal activity: 5006 mL/min/organ
[8]
  liver molar percent conversion to Naproxen: 50%
  liver microsomal activity: 721224 mL/min/organ

## COc1ccc2cc(C(C)C(=O)OC3CC(C(=O)OCO/N=[N+](\[O-])N(C)C)N(C(=O)C(C)(C)C)C3)ccc2c1 (stereo not drawn) [Compound 3]
[9]
  Time to complete hydrolysis (cleavage of the diazeniumdiolate): 2 h
[10]; 30 min, pH 2.5
  Stability (loss of diazeniumdiolate), pH 2.5: ✓
[10]; 30 min, pH 5.0
  Stability (loss of diazeniumdiolate), pH 5.0: ✓
[10]; 30 min, pH 7.0
  Stability (loss of diazeniumdiolate), pH 7.0: ✓
[10]; pH range 2.5-7.0, 30 minute period
  Chemical stability (in words): stable
[11]
  Conversion to NSAID-amino acid (cleavage of the diazeniumdiolate): 50%
